One data set relates to E3 target cells. To be noted: read-out: IC50 (selective cytotoxicity); cited from earlier work.
Another data set has as its system lysosomal hydrolases. The following applies: cited from earlier work.
Data set [1] relates to antigen-positive E3 cell line. The following applies: read-out: IC50 (cytotoxicities); cited from earlier work.
Data set [2] relates to hematological tumor cells. Briefly: HSC70 vaccine protection against hematological tumor cells in mice. It counts as in vivo. The following applies: mice vaccinated prior to injection of tumor cells versus not vaccinated.

Broadly, the IC50 is the midpoint of a concentration-inhibition curve. Regarding `CC(=O)[C@]1(O)Cc2c(O)c3c(c(O)c2[C@@H](O[C@H]2C[C@H](N)[C@H](O)[C@H](C)O2)C1)C(=O)c1ccccc1C3=O` [Ida, Idarubicin], the IC50 with E3 target cells was 120 nM. Ala-Leu-Dau [Ala-Leu-Dau derivative]: the “time for conversion back to the free drug by lysosomal hydrolases” value in the data set on lysosomal hydrolases is given as 2 h. Regarding `O=c1[nH]c(=O)n([C@H]2C[C@H](O)[C@@H](CO)O2)cc1F` [FUDR, 5-fluoro-2′-deoxyuridine], in data set [1], the 50% inhibitory concentration (IC50) was 0.4 nM. Take “HSC70: purified full length murine HSC70 protein used as vaccine antigen, may be administered with an adjuvant”: the tumor size result in data set [2] is on record as “smaller”.

The record behind these values is patent publication US7226748B2, “HSC70 directed diagnostics and therapeutics for multidrug resistant neoplastic disease” (priority 2003, dated 2007).
